From patent US5714501A, “Piperidine derivatives” (priority 1995, dated 1998) come the findings set out here.

Like-named read-outs stand apart in the source and are kept apart here.

In assay [1] the target is T1, leukotriene D4 receptors (Cavia porcellus, UniProt Q2NNR5).
T1 sequence (Q2NNR5 1-340): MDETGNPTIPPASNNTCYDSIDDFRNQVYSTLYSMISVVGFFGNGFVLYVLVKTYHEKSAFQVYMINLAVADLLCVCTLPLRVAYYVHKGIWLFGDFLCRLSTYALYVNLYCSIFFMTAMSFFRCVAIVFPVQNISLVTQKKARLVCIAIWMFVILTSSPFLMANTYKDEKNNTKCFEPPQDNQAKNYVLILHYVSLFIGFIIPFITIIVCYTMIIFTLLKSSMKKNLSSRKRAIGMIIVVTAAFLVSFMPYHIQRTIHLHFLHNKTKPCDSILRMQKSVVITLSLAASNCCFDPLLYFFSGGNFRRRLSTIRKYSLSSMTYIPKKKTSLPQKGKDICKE
Description: Inhibition of [3H]LTD4 binding to guinea-pig lung membranes (and saturation experiment). The arrangement: guinea-pig lung membrane proteins; from tissue; host or cells: guinea-pig lung membranes. How it is done:
The method is a modification of that described in the literature*. […] The piperazine-N,N'-bis(2-ethanesulfonic)acid buffer contains 10 mM CaCl2, 10 mM MgCl2, 50 mM NaCl, 2 mM cysteine and 2 mM glycine. The reaction was terminated by the addition of 5 ml ice-cold tris-HCl/NaClbuffer (10 mM/, pH 7.5). The mixture was immediately filtered under vacuum (Whatman GF/C filters) and the filters was washed once with 20 ml ice-cold buffer. The retained radioactivity was determined by a liquid scintillation counter.
In the saturation experiment, 2 μM LTD4 was used to define the non-specific binding.

The target of assay [2] is T2, histamine H1 receptors (Cavia porcellus, UniProt P31389).
T2 construct: guinea-pig cerebellum membrane proteins; from tissue; host or cells: guinea-pig cerebellum membranes
Put plainly: Inhibition of [3H]mepyramine binding to guinea-pig cerebellum membranes (and saturation experiment). The settings on record: 0.5 nM [3H]mepyramine, pH 7.5, 37° C., 30 min. The procedure: The method is based on that described previously. […] The reaction was stopped by the addition of 5 ml ice-cold phosphate buffer and followed by immediate filtration through Whatman GF/C filters. The filters were washed twice with about 20 ml cold buffer. The retained radioactivity was determined by a liquid scintillation counter after addition of 5 ml scintillation liquid.
In the saturation experiment, 10^-4 MR(-)dimethindene was used to define the non-specific binding.

Assay [3] concerns the target T2, histamine H1 receptors. Put plainly: Inhibition of histamine-induced contraction of isolated guinea-pig ileum. The settings on record: 30 min incubation with compound, 37° C.; for Kb: read-out: activity on histamine H1 receptors, pA2 (functional) (converted). How it is done: (§1) (1) Inhibition of histamine-or LTD4 -induced contraction
(§2) The first three dose-response experiments are performed by adding histamine or leukotriene D4 cumulatively to the organ bath. After adequate washing, the ileal strip is incubated with the testing compound for 30 min. The dose-response experiment is then conducted again. The dissociation constant (Kb) of the receptor-antagonist complex is used as the parameter to indicate the potency of the testing compound and is calculated according to the Cheng-Prusoff equation.

Assay [4] addresses T1, leukotriene D4 receptors. Description: Inhibition of LTD4-induced contraction of isolated guinea-pig ileum. The arrangement: A piece of ileum (about 2 cm length) isolated from guinea-pigs; from tissue; host or cells: guinea-pig ileum. The procedure:
as §1, §2

Setting [5] is: 0.2 nM [3H]-LTD4, guinea-pig lung membranes, pH 7.5, 22° C., 30 min.
Where [6] appears, read: guinea-pig ileum, LTD4-induced contraction, 30 min incubation with compound, 37° C., read-out: activity on leukotriene D4 receptors, pA2 (functional) (converted).

T2 sequence (P31389 whole entry): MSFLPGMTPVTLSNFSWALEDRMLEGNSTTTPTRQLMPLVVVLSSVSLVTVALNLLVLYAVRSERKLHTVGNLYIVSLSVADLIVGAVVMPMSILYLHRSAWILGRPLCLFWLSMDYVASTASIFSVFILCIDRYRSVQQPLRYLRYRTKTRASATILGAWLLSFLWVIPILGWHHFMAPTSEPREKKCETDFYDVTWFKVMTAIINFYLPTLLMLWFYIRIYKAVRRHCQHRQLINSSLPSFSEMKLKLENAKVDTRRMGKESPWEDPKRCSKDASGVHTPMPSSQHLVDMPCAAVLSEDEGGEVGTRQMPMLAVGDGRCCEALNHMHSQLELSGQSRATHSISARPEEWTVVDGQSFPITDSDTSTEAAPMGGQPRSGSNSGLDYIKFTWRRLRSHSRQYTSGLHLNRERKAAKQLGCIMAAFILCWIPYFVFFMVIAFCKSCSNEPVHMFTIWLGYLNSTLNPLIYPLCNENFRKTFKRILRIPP

With `O=C(N[C@@H](CN1CCC(=C2c3ccccc3C=Cc3ccccc32)CC1)C(=O)O)OCc1ccccc1` [Example 6, (S)-2-Benzyloxycarbonylamino-3-[4-(5H-dibenzo[a,d]cyclohepten-5-ylidene)piperidin-1-yl]propionic acid], the inhibition at 10 µM on leukotriene D4 receptors [1] (drug at the concentration of 10^-5 M, guinea-pig receptor preparations) worked out at 28%. Moreover, the Kd at histamine H1 receptors [2] turned out to be 147 nM. In addition, at histamine H1 receptors [3], the Kb is 42.7 nM.

In the case of `CC(C)(C)c1ccc(C(O)CCCN2CCC(C(O)(c3ccccc3)c3ccccc3)CC2)cc1` (stereo not shown) [terfenadine, reference compound], the “activity on leukotriene D4 receptors, KD (binding)” value at leukotriene D4 receptors [1] (setting [5]) is “not active”. Further, at leukotriene D4 receptors [4] (guinea-pig ileum, LTD4-induced contraction, 30 min incubation with compound, 37° C.), the “activity on leukotriene D4 receptors, pA2 (functional)” value was “not active”.

With `O=C(N[C@H](CN1CCC(=C2c3ccccc3CCc3ccccc32)CC1)C(=O)O)OCc1ccccc1` [Example 8, (R)-2-Benzyloxycarbonylamino-3-[4-(10,11-dihydro-5H-dibenzo[a,d]-cyclohepten-5-ylidene)piperidin-1-yl]propionic acid], the Kd on leukotriene D4 receptors [1] (setting [5]) was found to be 1550 nM; on histamine H1 receptors [2], 412 nM. Besides, the values for the Kb on leukotriene D4 receptors [4] (setting [6]) and on histamine H1 receptors [3] were 141 nM and 10 nM, respectively.

As to `O=C(N[C@@H](CN1CCC(=C2c3ccccc3CCc3ccccc32)CC1)C(=O)O)OCc1ccccc1` [Example 7, (S)-2-Benzyloxycarbonylamino-3-[4-(10,11-dihydro-5H-dibenzo[a,d]cyclohepten-5-ylidene)-piperidin-l-yl]propionic acid], the Kd at leukotriene D4 receptors [1] (setting [5]) came out at 6800 nM; at histamine H1 receptors [2] it was 871 nM. Further, the Kb on leukotriene D4 receptors [4] (setting [6]) is 1120 nM; at histamine H1 receptors [3], 33.1 nM.

`CCCc1c(OCC(O)COc2ccc3c(=O)cc(C(=O)O)oc3c2CCC)ccc(C(C)=O)c1O` (stereo not shown) [FPL55712, reference compound]: at leukotriene D4 receptors [4], the Kb is 120 nM. Also, the “activity on histamine H1 receptors, KD (binding)” value at histamine H1 receptors [2] was “not active”. Further, the “activity on histamine H1 receptors, pA2 (functional)” value at histamine H1 receptors [3] is recorded as “not active”.
